The source made the active and inactive calls.
How the values were obtained:
[1] = target: Neuropeptides B/W receptor type 1 (Homo sapiens, UniProt P48145); assay: Fluorescence-based dose response cell-based high throughput screening assay to identify antagonists of the G-protein coupled receptor 7 (GPR7). [Related pubchem assays: 1952 (Screening assay (GPR7 antagonists).), 1880 (Summary AID.)]; type: functional
[2] = target: Melanin-concentrating hormone receptor 1 (Homo sapiens, UniProt Q99705); assay: Fluorescence-based counterscreen for antagonists of the G-protein coupled receptor 7 (GPR7): cell-based high throughput dose response assay to identify antagonists of the melanin-concentrating hormone receptor 1 (MCHR1).; type: functional
[3] = target: T1, Induced myeloid leukemia cell differentiation protein Mcl-1 (Homo sapiens, UniProt Q07820); assay: MCL1-BIM BH3 interaction inhibitors, dose response, biochemical, fluorescence polarization, BIM-BH3 peptide, 1536-well (AID 2217)
Bcl-2-like protein 1 = Bcl-2-like protein 1 (Homo sapiens, UniProt Q07817); assay: BCL-XL inhibitors, dose response, selectivity assay for MCL1 inhibitor project, biochemical, fluorescence polarization, 1536-well (AID 2218)
[4] = target: T1, Induced myeloid leukemia cell differentiation protein Mcl-1; type: functional
[5] = target: Mitogen-activated protein kinase 10 (Homo sapiens, UniProt P53779); assay: Dose response biochemical screening assay for inhibitors of c-Jun N-Terminal Kinase 3 (JNK3). [Related pubchem assays: 746 ]
[6] = Artemis endonuclease inhibitor potency, dose response, biochemical, fluorescence intensity (AID 720701); type: functional;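 also: Artemis endonuclease enzyme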
[7] = Vero cell cytotoxicity, dose response, cytotoxicity control for Vif-APOBEC3G degradation inhibitor project, Vero cells (AID 1117358); type: functional; settings: Human immunodeficiency virus 1, Vero
[8] = P. falciparum 3D7-ScDHODH growth inhibitors, dose response, SYBR Green, dry powder samples (AID 1159570); type: functional, cell-based;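 also: parasite growth measured after 72 hours of compound exposure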
[9] = HepG2 cell cytotoxicity, dose response, cytotoxicity control, plate reader, dry powder samples (AID 1159569); type: functional, cell-based;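 also: inhibitor potency with signal falling toward the positive control level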
[10] = P. falciparum Dd2 growth inhibitors, dose response, SYBR Green, dry powder samples, set 9 (AID 1159568); type: functional, cell-based
[11] = P. falciparum Dd2 growth inhibitors, dose response, SYBR Green, cherry-picked samples (AID 1159567); type: functional, cell-based
[12] = P. falciparum Dd2 growth inhibitors, dose response, SYBR Green, dry powder samples (AID 1159566); type: functional, cell-based;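 also: potency for growth inhibition with lower SYBR green DNA signal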
[13] = Plasmodium falciparum Dd2 Sybr green parasite growth Measured in Cell-Based and Microorganism Combination System Using Plate Reader - 2153-01_Inhibitor_Dose_DryPowder_Activity_Set3.; type: functional
[14] = P. falciparum ATP4 D1247Y mutant growth inhibitors, dose response, NITD609-resistant line, SYBR Green, dry powder (AID 1159571); type: functional, cell-based;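 also: parasites synchronized at ring stage by sorbitol before testing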
[15] = target: Aryl hydrocarbon receptor (Homo sapiens, UniProt P35869); assay: Luminescence-based cell-based high throughput dose response assay for activators of the Aryl Hydrocarbon Receptor (AHR). [Related pubchem assays: 2796 (Primary screen (AHR activators in singlicate)), 2845 (Confirmation screen (AHR activators in triplicate)), 434939 (Counterscreen (PXR activators in triplicate)), 2804 (Summary (AHR activators))]; type: ADME
[16] = P. falciparum Dd2 growth inhibitors, dose response, SYBR Green, dry powder samples, set 4 (AID 1159572); type: functional, cell-based
NADPH oxidase 1 = NADPH oxidase 1 (Homo sapiens, UniProt Q9Y5S8); type: functional, cell-based;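 also: Cell-based assay with luminescence read-out, IC50 derived from inhibitor dose-response curves; intracellular ROS from endogenous NOX1 in intact HT29 colon cancer cells; potency of inhibitors that lower the ROS luminescence signal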
Sequence of NADPH oxidase 1 (Q9Y5S8 whole entry): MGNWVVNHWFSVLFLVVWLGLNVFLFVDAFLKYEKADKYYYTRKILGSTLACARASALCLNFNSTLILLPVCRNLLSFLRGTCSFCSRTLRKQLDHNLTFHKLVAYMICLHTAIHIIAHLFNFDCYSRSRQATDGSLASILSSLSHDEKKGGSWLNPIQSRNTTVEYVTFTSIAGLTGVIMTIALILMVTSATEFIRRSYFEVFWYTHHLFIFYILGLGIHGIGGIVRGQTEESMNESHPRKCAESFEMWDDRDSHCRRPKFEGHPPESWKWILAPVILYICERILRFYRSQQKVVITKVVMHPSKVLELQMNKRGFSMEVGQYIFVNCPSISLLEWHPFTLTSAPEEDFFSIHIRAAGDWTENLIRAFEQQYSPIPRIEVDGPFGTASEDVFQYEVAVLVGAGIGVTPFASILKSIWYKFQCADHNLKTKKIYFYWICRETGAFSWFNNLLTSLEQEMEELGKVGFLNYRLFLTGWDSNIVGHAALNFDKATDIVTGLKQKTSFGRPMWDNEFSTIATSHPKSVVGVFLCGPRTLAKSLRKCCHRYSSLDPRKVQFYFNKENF

T1 sequence (Q07820 whole entry): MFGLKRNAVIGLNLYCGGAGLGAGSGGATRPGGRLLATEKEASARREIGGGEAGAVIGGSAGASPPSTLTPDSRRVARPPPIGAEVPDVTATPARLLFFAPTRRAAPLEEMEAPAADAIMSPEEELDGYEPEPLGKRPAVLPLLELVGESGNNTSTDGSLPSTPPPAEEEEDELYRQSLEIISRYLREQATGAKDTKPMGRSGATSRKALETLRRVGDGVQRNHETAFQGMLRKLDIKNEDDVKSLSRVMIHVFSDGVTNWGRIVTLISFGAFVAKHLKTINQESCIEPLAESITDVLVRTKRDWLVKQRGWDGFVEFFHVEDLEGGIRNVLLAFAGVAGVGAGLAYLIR
Sequence of Aryl hydrocarbon receptor (P35869 whole entry): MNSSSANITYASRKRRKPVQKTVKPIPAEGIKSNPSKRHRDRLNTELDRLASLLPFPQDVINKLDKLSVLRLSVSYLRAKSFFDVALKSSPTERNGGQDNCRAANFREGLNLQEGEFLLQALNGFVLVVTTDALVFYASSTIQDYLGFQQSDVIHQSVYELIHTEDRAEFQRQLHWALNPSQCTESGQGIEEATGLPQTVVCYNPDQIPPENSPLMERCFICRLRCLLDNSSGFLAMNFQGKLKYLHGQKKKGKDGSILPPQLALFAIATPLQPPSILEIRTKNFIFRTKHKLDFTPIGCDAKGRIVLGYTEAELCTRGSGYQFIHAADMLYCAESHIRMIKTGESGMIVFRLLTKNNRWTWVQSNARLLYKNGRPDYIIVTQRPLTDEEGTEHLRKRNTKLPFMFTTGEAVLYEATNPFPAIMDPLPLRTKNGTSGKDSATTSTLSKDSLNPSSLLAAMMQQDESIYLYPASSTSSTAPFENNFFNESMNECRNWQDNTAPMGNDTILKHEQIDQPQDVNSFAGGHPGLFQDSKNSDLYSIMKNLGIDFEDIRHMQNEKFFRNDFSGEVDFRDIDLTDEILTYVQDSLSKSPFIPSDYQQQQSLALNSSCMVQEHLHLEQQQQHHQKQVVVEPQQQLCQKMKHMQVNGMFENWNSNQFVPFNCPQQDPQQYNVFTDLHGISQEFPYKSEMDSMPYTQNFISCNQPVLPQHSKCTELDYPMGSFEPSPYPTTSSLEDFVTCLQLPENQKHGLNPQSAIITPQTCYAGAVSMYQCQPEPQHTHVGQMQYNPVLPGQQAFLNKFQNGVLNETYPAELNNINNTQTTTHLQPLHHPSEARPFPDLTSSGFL
Sequence of Neuropeptides B/W receptor type 1 (P48145 whole entry): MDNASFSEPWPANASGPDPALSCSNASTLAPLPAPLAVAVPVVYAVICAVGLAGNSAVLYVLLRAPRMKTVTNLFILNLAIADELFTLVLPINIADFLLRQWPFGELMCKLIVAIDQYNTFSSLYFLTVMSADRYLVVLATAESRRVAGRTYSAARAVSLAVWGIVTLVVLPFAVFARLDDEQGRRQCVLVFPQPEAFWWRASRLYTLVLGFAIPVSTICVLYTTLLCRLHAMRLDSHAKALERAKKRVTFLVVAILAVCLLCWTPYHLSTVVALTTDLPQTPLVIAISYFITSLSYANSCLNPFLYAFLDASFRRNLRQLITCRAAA
Sequence of Melanin-concentrating hormone receptor 1 (Q99705 whole entry): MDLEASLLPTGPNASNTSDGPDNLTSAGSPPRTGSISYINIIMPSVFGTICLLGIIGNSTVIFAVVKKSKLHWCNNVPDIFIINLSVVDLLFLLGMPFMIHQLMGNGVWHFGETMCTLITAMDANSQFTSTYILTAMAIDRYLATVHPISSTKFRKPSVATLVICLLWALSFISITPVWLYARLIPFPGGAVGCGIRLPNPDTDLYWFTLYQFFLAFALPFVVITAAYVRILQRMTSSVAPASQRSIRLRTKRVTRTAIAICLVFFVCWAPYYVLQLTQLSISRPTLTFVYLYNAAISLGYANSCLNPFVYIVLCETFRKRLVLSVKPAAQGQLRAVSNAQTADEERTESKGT
Sequence of Bcl-2-like protein 1 (Q07817 whole entry): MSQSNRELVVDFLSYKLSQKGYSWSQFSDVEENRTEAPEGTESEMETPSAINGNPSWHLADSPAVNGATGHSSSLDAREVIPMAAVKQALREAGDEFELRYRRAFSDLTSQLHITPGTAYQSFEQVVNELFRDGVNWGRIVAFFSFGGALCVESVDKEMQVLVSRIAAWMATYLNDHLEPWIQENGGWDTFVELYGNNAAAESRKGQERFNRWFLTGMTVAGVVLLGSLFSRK
Sequence of Mitogen-activated protein kinase 10 (P53779 whole entry): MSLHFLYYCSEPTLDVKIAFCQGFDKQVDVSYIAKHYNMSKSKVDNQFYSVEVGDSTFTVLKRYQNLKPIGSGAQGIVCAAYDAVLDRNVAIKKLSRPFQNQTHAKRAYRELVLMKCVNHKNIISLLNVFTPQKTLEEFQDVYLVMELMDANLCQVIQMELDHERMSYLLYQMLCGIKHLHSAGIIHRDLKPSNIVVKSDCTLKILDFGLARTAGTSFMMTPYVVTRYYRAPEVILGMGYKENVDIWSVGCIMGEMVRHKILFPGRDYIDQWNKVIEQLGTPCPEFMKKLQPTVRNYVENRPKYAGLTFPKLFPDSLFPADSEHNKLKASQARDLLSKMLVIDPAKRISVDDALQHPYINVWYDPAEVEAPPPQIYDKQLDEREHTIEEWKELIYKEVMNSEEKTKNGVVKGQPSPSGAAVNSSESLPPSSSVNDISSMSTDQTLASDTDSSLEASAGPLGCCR

Q: With O=C(NC1CCCC1)C(c1ccccc1)N(Cc1ccco1)C(=O)Cc1cccs1 (stereo not drawn) as the compound, how does the IC50 [1] read?
A: > 43.8 µM (not active)

Q: What about the IC50 [2] of the same compound?
A: 4.76 µM (active)

Q: For O=c1c2c3c(sc2[nH]c(=S)n1Cc1ccco1)CCC3, which IC50 [3] is on record?
A: 77.8 µM (not active)

Q: What about the IC50 (Bcl-2-like protein 1) of the same compound?
A: > 109 µM (not active)

Q: What about the IC50 [4] of the same compound?
A: 2.1 µM (active)

Q: Which IC50 [5] does the source give for Cc1c(-c2nc(N)nc(Nc3ccccc3)n2)oc2ccccc12 here?
A: > 93.1 µM (not active)

Q: What about the IC50 [6] of the same compound?
A: 7.66 µM (active)

Q: For O=C(c1ccco1)c1cn(Cc2ccccc2)c2ccccc12, which CC50 [7] is on record?
A: > 40 µM (active)

Q: With CCCC(=O)Nc1ccc2c(c1)OC[C@@H](C)N(Cc1cc(F)ccc1F)C[C@@H](C)[C@H](OC)CN(C)C2=O as the compound, how does the AC50 [8] read?
A: 7.15 µM (active)

Q: What about the AC50 [9] of the same compound?
A: > 100 µM (inactive)

Q: What about the AC50 [10] of the same compound?
A: 0.978 µM (active)

Q: And the AC50 [11]?
A: 0.817 µM (active)

Q: What about the AC50 [12] of the same compound?
A: 0.322 µM (active)

Q: What about the AC50 [13] of the same compound?
A: 2.07 µM (active)

Q: And the AC50 [14]?
A: 2.81 µM (active)

Q: With Nc1cccc(Nc2ncnc3ccccc23)c1 as the compound, how does the EC50 [15] read?
A: 3.58 µM (active)

Q: With COc1ccc2c3c([nH]c2c1)[C@H](CO)N(C(C)=O)CC31CCN(C(=O)c2ccc3c(c2)OCO3)CC1 as the compound, how does the AC50 [16] read?
A: 6.93 µM (active)

Q: With O=C(Nc1ccc(OCc2ccccc2)cc1)Nc1ccc([N+](=O)[O-])cc1 as the compound, how does the IC50 (NADPH oxidase 1) read?
A: > 17 µM (not active)
